Results as given in patent US20240325548A1, “DYNAMIC BIOACTIVE SCAFFOLDS AND THERAPEUTIC USES THEREOF AFTER CNS INJURY” (Northwestern University, priority 2021, published 2024).

Experiments:
[1] = Fluorescence depolarization (FD) with DPH encapsulated in PA nanofibers; type: physicochemical; details: for supramolecular motion on addition of Ca2+: 5 mM CaCl2, confirmed by FD and T2-NMR; for fluorescence anisotropy: DPH probe in hydrophobic core of IKVAV PA nanofibers
Procedure: An aqueous solution of 100 μL of annealed PA ([PA]=6 mM, [KCl]=3 mM, [NaCl]=150 mM) was added a THF solution (2 μL) of 1,6-diphenyl-1,3,5-hexatriene (DPH; 1.4 mM), and the mixture was incubated for 30 min at 25° C. Then, the mixture was diluted with aqueous KCl and NaCl (1900 μL, [KCl]=3 mM, [NaCl]=150 mM), incubated for 10-30 min at 25° C. to afford a solution of DPH (1.4 μM)-embedded PA (300 μM). To obtain IKVAV PA2 (A2G2) or IKVAV PA5 (G4) in the presence of CaCl2), 5 mM CaCl2) was then added to the DPH-embedded PA aqueous solution to afford PA: CaCl2) at a molar ratio of 6:1. DPH was exited at 336 nm and emission was recorded at 450 nm on an ISS model PC1 spectrofluorometer with a 300 W xenon arc lamp with power of 18 A. Excitation slit and emission slit widths were set as 1 mm (8 nm bandwidth). Anisotropy was calculated using the following equation: […]
Where F∥ represents the parallel intensity to the excitation plane, F⊥ is the perpendicular intensity to the excitation plane, g is grating factor (G-factor) that represents the intensity ratio of the sensitivity of the detection system for vertically and horizontally polarized light. G-factors were determined individually in each measurement. Results were averaged based on 34 iterations from two measurements.

[2] = tested on: murine model of severe spinal cord injury (SCI); experiment: Corticospinal tract (CST) axon regrowth after SCI (BDA tracing); type: in vivo, mouse; details: 12 weeks after injury, BDA-labeled axons
Procedure: All experiments were conducted at the Simpson Querrey Institute at Northwestern University. 182 CD1 mice (Charles River) were subjects of this study (N=38 Sham, N=38 IKVAV PA2 alone, N=38 IKVAV PA2+FGF2 PA1, N=38 IKVAV PA2+FGF2 PA2, N=12 IKVAV PA1, N=12 Backbone PA, N=6 IKVAV PA4). The age of animals used in the study was in the range of 10-16 weeks. 8 independent in vivo experiments were carried out (injury+PA injection) and each of the 8 experiments had animals of the exact same age which were injected with at least the 4 main treatment groups: Sham, IKVAV PA2 alone, IKVAV PA2+FGF2 PA1, and IKVAV PA2+FGF2 PA2. Animals were anesthetized using 2.5% isoflurane gas with oxygen. A laminectomy was performed to expose the spinal cord at the T10-T11 spinal level. A severe contusive injury was performed using the Infinite Horizon Spinal Cord Impactor system (IH-0400 Precision Systems and Instrumentation) with 85 kdyn of impact force and a dwell time of 60 s. After the lesion, the skin was sutured using 9 mm wound clips (BD Biosciences) and the animals were recovered on a heating pad to maintain body temperature. Bladders were manually expressed daily during the entire 12 weeks of the experiment.
PAs (dissolved in sterile NaCl 0.9% solution at 1 wt %) were injected 24 h after SCI using a glass capillary micropipette (Sutter Instruments, Novato, CA) (outer diameter, 100 m) coated with Sigmacote (Sigma-Aldrich) to reduce surface tension as described elsewhere (19). The capillaries were loaded onto a Hamilton syringe using a female Luer adaptor (World Precision Instruments) controlled by a Micro4 microsyringe pump controller (World Precision Instruments). Under isoflurane anesthesia, autoclips were removed and the injury site was exposed. At 24 h post injury, the laminectomy in the spinal column was still intact and the bruise created by the lesion was visible. A stereotaxic Kopf apparatus was used to position the micropipette just dorsal to the lesion. The micropipette was lowered to a depth of 750 m measured from the dorsal surface of the cord, and 4-6 μL of the diluted amphiphile solution was injected at 1 L/min. […]
Axons labeled using BDA (Thermofisher, N7167) or stained with 5HT (Abcam) were quantified using Imaris® software version 9.3 as previously described (21). Lines were drawn across longitudinal spinal cord sections from the proximal border (PB) to the distal border (DB) of the SCI lesion at consistent distances and the number of axons intercepting the lines drawn was counted by researchers that were blinded to the experimental conditions. Multiple sections through the middle of the cord, where BDA or 5HT staining was denser, were counted per mouse and expressed as total intercepts per location, per animal. […]

## C16-G4E4GIKVAV [IKVAV PA5]
[1]
  supramolecular motion on addition of Ca2+: suppressed
  fluorescence anisotropy: 0.18

## C16-VAG2E4GIKVAV [IKVAV PA4]
[1]
  fluorescence anisotropy: 0.30
[2]
  CST axon regrowth within the lesion: intermediate level of axon regrowth

## C16-A2G2E4GIKVAV [IKVAV PA2]
[1]
  supramolecular motion on addition of Ca2+: suppressed
  fluorescence anisotropy: 0.21
[2]
  CST axon regrowth within the lesion: modest, but increased axon regrowth

## C16-V2A2E4GIKVAV [IKVAV PA1]
[2]
  CST axon regrowth within the lesion: some regrowth of axons
